Square brackets hold non-standard residues; d marks the D form. Peptide text beside a SMILES is read from it. Oic = O=C(O)[C@@H]1C[C@@H]2CCCC[C@@H]2N1; 1Nal = N[C@@H](Cc1cccc2ccccc12)C(=O)O; 2Nal = N[C@@H](Cc1ccc2ccccc2c1)C(=O)O; hArg = N=C(N)NCCCC[C@H](N)C(=O)O; Tic = O=C(O)[C@@H]1Cc2ccccc2CN1; Cit = NC(=O)NCCC[C@H](N)C(=O)O
Target: T1, CGRP1 receptor (Homo sapiens, UniProt O60894+Q16602)
T1 construct: SK-N-MC cells express CRLR and RAMP1, which form CGRP1 receptor; endogenous in cells; host or cells: SK-N-MC human neuroblastoma cells
T1 sequence (Q16602 23-461): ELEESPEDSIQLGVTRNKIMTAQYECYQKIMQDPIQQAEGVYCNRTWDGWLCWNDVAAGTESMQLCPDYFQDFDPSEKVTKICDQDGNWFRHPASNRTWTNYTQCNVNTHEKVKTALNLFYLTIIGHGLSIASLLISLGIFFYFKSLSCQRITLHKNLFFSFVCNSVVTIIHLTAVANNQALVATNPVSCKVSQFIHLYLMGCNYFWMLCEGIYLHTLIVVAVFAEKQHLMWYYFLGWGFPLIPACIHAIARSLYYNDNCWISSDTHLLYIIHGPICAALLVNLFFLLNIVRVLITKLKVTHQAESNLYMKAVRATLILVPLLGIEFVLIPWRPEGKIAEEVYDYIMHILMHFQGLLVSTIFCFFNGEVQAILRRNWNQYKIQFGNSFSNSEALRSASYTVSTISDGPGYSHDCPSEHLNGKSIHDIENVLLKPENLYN
T1 sequence (O60894 27-148): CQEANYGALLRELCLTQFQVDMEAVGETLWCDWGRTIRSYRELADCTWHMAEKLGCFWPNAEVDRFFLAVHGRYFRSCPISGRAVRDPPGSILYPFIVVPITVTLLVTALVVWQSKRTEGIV
Assay: in vitro CGRP1 receptor mediated cAMP assay in SK-N-MC cells
Assay type: cell-based
Conditions: Table 2A; read-out: IC50
Experimental: The in vitro cAMP assay employed a human neuroblastoma-derived cell line (SK-N-MC). SK-N-MC cells express CRLR and RAMP1, which form CGRP1 receptor. CGRP1 receptor is a G-protein coupled receptor linked to the stimulatory G-protein, Gs. […] Briefly, two days before the assay, the cells were plated in 96-well plates in growth medium. On the day of the assay cells were rinsed with PBS followed by the addition of 60 μl of plasma free medium for 15 minutes at room temperature. […] The medium was then removed and the cells were lysed with 100 μl lysis buffer for 30 minutes at 37° C. for 30 minutes. Using a Tropix ELISA kit (Applied Biosystems, Foster City, Calif.), a cAMP-AP conjugate was diluted (1:100) and added (30 μl) to each well of a 96-well ELISA plate. An aliquot of the lysis buffer from the cell plate was then added to the ELISA plate followed by an aliquot of the cAMP antibody. This mixture was incubated for 1 hour at room temperature with gentle shaking. The ELISA plate was then washed 6× with wash buffer followed by the additions of a substrate enhancer. This mixture was incubated for 30 minutes at room temperature and then read on a MicroBeta Jet or EnVision plate reader. The results were analyzed using Prism (GraphPad).

`CC(=O)N[C@@H](Cc1c[nH]c2ccccc12)C(=O)N[C@H](C(=O)N[C@H](C(=O)N[C@@H](Cc1c[nH]cn1)C(=O)N[C@@H](CCCNC(N)=O)C(=O)N[C@@H](CC(C)C)C(=O)N[C@@H](C)C(=O)NCC(=O)N[C@@H](CC(C)C)C(=O)N[C@@H](CC(C)C)C(=O)N[C@@H](CO)C(=O)N[C@@H](CCCNC(N)=O)C(=O)N[C@@H](CO)C(=O)NCC(=O)NCC(=O)N[C@H](C(=O)N[C@H](C(=O)N[C@@H](CCCCNC(=N)N)C(=O)N[C@@H](CCCCN)C(=O)N[C@@H](CC(N)=O)C(=O)N[C@@H](Cc1ccc2ccccc2c1)C(=O)N[C@H](C(=O)N1CCC[C@H]1C(=O)N[C@H](C(=O)N[C@@H](CC(=O)O)C(=O)N[C@H](C(=O)NCC(=O)N1[C@H](C(=O)N[C@@H](Cc2ccccc2)C(=O)N[C@@H](C)C(=O)N[C@@H](Cc2ccccc2)C(N)=O)C[C@@H]2CCCC[C@@H]21)C(C)C)[C@@H](C)O)C(C)C)C(C)C)C(C)C)[C@@H](C)O)C(C)C` [compound 137] (Ac-WVTH[Cit]LAGLLS[Cit]SGGVV[hArg]KN[2Nal]VPTDVG[Oic]FAF-NH2) and `CC(=O)N[C@@H](Cc1c[nH]c2ccccc12)C(=O)N[C@H](C(=O)N[C@H](C(=O)N[C@@H](Cc1c[nH]cn1)C(=O)N[C@@H](CCCNC(N)=O)C(=O)N[C@@H](CC(C)C)C(=O)N[C@@H](C)C(=O)NCC(=O)N[C@@H](CC(C)C)C(=O)N[C@@H](CC(C)C)C(=O)N[C@@H](CO)C(=O)N[C@@H](CCCNC(N)=O)C(=O)N[C@@H](CO)C(=O)NCC(=O)NCC(=O)N[C@H](C(=O)N[C@H](C(=O)N[C@@H](CCCCNC(=N)N)C(=O)N[C@@H](CCCCN)C(=O)N[C@@H](CC(N)=O)C(=O)N[C@@H](Cc1ccc2ccccc2c1)C(=O)N[C@H](C(=O)N1CCC[C@H]1C(=O)N[C@H](C(=O)N[C@@H](CC(=O)O)C(=O)N[C@H](C(=O)NCC(=O)N1[C@H](C(=O)N[C@@H](Cc2ccccc2)C(=O)N[C@@H](C)C(=O)N[C@@H](Cc2ccc3ccccc3c2)C(N)=O)C[C@@H]2CCCC[C@@H]21)C(C)C)[C@@H](C)O)C(C)C)C(C)C)C(C)C)[C@@H](C)O)C(C)C` [compound 138] (Ac-WVTH[Cit]LAGLLS[Cit]SGGVV[hArg]KN[2Nal]VPTDVG[Oic]FA[2Nal]-NH2) are within 1.5-fold of each other in IC50: 2.66 nM for the first, 3.45 nM for the second.

Going from `CC(=O)N[C@@H](Cc1c[nH]c2ccccc12)C(=O)N[C@H](C(=O)N[C@H](C(=O)N[C@@H](Cc1c[nH]cn1)C(=O)N[C@@H](CCCNC(N)=O)C(=O)N[C@@H](CC(C)C)C(=O)N[C@@H](C)C(=O)NCC(=O)N[C@@H](CC(C)C)C(=O)N[C@@H](CC(C)C)C(=O)N[C@@H](CO)C(=O)N[C@@H](CCCNC(N)=O)C(=O)N[C@@H](CO)C(=O)NCC(=O)NCC(=O)N[C@H](C(=O)N[C@H](C(=O)N[C@@H](CCCCNC(=N)N)C(=O)N[C@@H](CCCCN)C(=O)N[C@@H](CC(N)=O)C(=O)N[C@@H](Cc1ccc2ccccc2c1)C(=O)N[C@H](C(=O)N1[C@H](C(=O)N[C@H](C(=O)N[C@@H](CC(=O)O)C(=O)N[C@H](C(=O)NCC(=O)N2[C@H](C(=O)N[C@@H](Cc3ccccc3)C(=O)N[C@@H](C)C(=O)N[C@@H](Cc3ccc4ccccc4c3)C(N)=O)C[C@@H]3CCCC[C@@H]32)C(C)C)[C@@H](C)O)C[C@@H]2CCCC[C@@H]21)C(C)C)C(C)C)C(C)C)[C@@H](C)O)C(C)C` [compound 139] (Ac-WVTH[Cit]LAGLLS[Cit]SGGVV[hArg]KN[2Nal]V[Oic]TDVG[Oic]FA[2Nal]-NH2) to `CC(=O)N[C@@H](Cc1c[nH]c2ccccc12)C(=O)N[C@H](C(=O)N[C@H](C(=O)N[C@@H](Cc1c[nH]cn1)C(=O)N[C@@H](CCCNC(N)=O)C(=O)N[C@@H](CC(C)C)C(=O)N[C@@H](C)C(=O)NCC(=O)N[C@@H](CC(C)C)C(=O)N[C@@H](CC(C)C)C(=O)N[C@@H](CO)C(=O)N[C@@H](CCCNC(N)=O)C(=O)N[C@@H](CO)C(=O)NCC(=O)NCC(=O)N[C@H](C(=O)N[C@H](C(=O)N[C@@H](CCCCNC(=N)N)C(=O)N[C@@H](CCCCN)C(=O)N[C@@H](CC(N)=O)C(=O)N[C@@H](Cc1ccccc1)C(=O)N[C@H](C(=O)N1CCC[C@H]1C(=O)N[C@H](C(=O)N[C@@H](CC(=O)O)C(=O)N[C@H](C(=O)NCC(=O)N1CCC[C@H]1C(=O)N[C@@H](Cc1cccc2ccccc12)C(=O)N[C@@H](C)C(=O)N[C@@H](Cc1ccccc1)C(N)=O)C(C)C)[C@@H](C)O)C(C)C)C(C)C)C(C)C)[C@@H](C)O)C(C)C` [compound 144] (Ac-WVTH[Cit]LAGLLS[Cit]SGGVV[hArg]KNFVPTDVGP[1Nal]AF-NH2), the IC50 falls from 3.57 nM to 2.24 nM (1.6-fold). The second is the more potent here.

Compared with `CC(=O)N[C@@H](Cc1c[nH]c2ccccc12)C(=O)N[C@H](C(=O)N[C@H](C(=O)N[C@@H](Cc1c[nH]cn1)C(=O)N[C@@H](CCCNC(N)=O)C(=O)N[C@@H](CC(C)C)C(=O)N[C@@H](C)C(=O)NCC(=O)N[C@@H](CC(C)C)C(=O)N[C@@H](CC(C)C)C(=O)N[C@@H](CO)C(=O)N[C@@H](CCCNC(N)=O)C(=O)N[C@@H](CO)C(=O)NCC(=O)NCC(=O)N[C@H](C(=O)N[C@H](C(=O)N[C@@H](CCCNC(=N)N)C(=O)N[C@@H](CCCCN)C(=O)N[C@@H](CC(N)=O)C(=O)N[C@@H](Cc1ccccc1)C(=O)N[C@H](C(=O)N1CCC[C@H]1C(=O)N[C@H](C(=O)N[C@@H](CC(=O)O)C(=O)N[C@H](C(=O)NCC(=O)N1CCC[C@H]1C(=O)N1Cc2ccccc2C[C@H]1C(=O)N[C@@H](C)C(=O)N[C@@H](Cc1ccccc1)C(N)=O)C(C)C)[C@@H](C)O)C(C)C)C(C)C)C(C)C)[C@@H](C)O)C(C)C` [compound 146] (Ac-WVTH[Cit]LAGLLS[Cit]SGGVVRKNFVPTDVGP[Tic]AF-NH2), `CC(=O)N[C@@H](Cc1c[nH]c2ccccc12)C(=O)N[C@H](C(=O)N[C@H](C(=O)N[C@@H](Cc1cnc[nH]1)C(=O)N[C@@H](CCCNC(N)=O)C(=O)N[C@@H](CC(C)C)C(=O)N[C@@H](C)C(=O)NCC(=O)N[C@@H](CC(C)C)C(=O)N[C@@H](CC(C)C)C(=O)N[C@@H](CO)C(=O)N[C@@H](CCCNC(N)=O)C(=O)N[C@@H](CO)C(=O)NCC(=O)NCC(=O)N[C@H](C(=O)N[C@H](C(=O)N[C@@H](CCCCNC(=N)N)C(=O)N[C@@H](CCCCN)C(=O)N[C@@H](CC(N)=O)C(=O)N[C@@H](Cc1ccccc1)C(=O)N[C@H](C(=O)N1CCC[C@H]1C(=O)N[C@H](C(=O)N[C@@H](CC(=O)O)C(=O)N[C@H](C(=O)NCC(=O)N1CCC[C@H]1C(=O)N[C@@H](Cc1ccccc1)C(=O)N[C@@H](C)C(=O)N[C@@H](Cc1ccccc1)C(N)=O)C(C)C)[C@@H](C)O)C(C)C)C(C)C)C(C)C)[C@@H](C)O)C(C)C` [compound 653] is 3.1-fold lower in IC50: 10.1 nM for the first, 3.22 nM for the second. The second is the more potent here.

Compound `CC(=O)N[C@H](C(=O)N[C@H](C(=O)N[C@H](C(=O)N[C@H](C(=O)N[C@@H](Cc1c[nH]cn1)C(=O)N[C@@H](CCCNC(N)=O)C(=O)N[C@@H](CC(C)C)C(=O)N[C@@H](C)C(=O)NCC(=O)N[C@@H](CC(C)C)C(=O)N[C@@H](CC(C)C)C(=O)N[C@@H](CO)C(=O)N[C@@H](CCCNC(N)=O)C(=O)N[C@@H](CO)C(=O)NCC(=O)NCC(=O)N[C@H](C(=O)N[C@H](C(=O)N[C@@H](CCCCNC(=N)N)C(=O)N[C@@H](CCCCN)C(=O)N[C@@H](CC(N)=O)C(=O)N[C@@H](Cc1ccccc1)C(=O)N[C@H](C(=O)N1CCC[C@H]1C(=O)N[C@H](C(=O)N[C@@H](CC(=O)O)C(=O)N[C@H](C(=O)NCC(=O)N1CCC[C@H]1C(=O)N[C@@H](Cc1ccccc1)C(=O)N[C@@H](C)C(N)=O)C(C)C)[C@@H](C)O)C(C)C)C(C)C)C(C)C)[C@@H](C)O)C(C)C)C(C)C)C(C)C` [compound 654] (Ac-VVVTH[Cit]LAGLLS[Cit]SGGVV[hArg]KNFVPTDVGPFA-NH2) has an IC50 greater than 1000 nM.

From patent US8168592B2 (Amgen Inc., priority 2005, dated 2012)
